This note sets out measurements from ChEMBL document CHEMBL1697731, “Cheminformatics analysis of assertions mined from literature that describe drug-induced liver injury in different species” (Chem Res Toxicol, 2010).

Data set [1] has as its system Hepatotoxicity. Put plainly: Literature-mined compound from Fourches et al multi-species drug-induced liver injury (DILI) dataset, effect in rodents. The note with it: rodentia.
Data set [2] relates to Hepatotoxicity. In words: Literature-mined compound from Fourches et al multi-species drug-induced liver injury (DILI) dataset, effect in non-rodents.
Data set [3] deals with Hepatotoxicity. Put plainly: Literature-mined compound from Fourches et al multi-species drug-induced liver injury (DILI) dataset, effect in humans. The conditions noted are these: human.

For the molecule `N[C@@H](Cc1cc(I)c(Oc2cc(I)c(O)c(I)c2)c(I)c1)C(=O)O` [LEVOTHYROXINE], the Hepatotoxicity entry in the data set with Hepatotoxicity [1], in the data set on Hepatotoxicity [2] and with Hepatotoxicity [3] was “drug-induced liver injury reported” in each case.

For the molecule `CCN(CC)CC(=O)Nc1c(C)cccc1C` [LIDOCAINE], the Hepatotoxicity result in the data set on Hepatotoxicity [1] (Liver), in the data set with Hepatotoxicity [2] (Liver) and in the data set on Hepatotoxicity [3] (Liver) was “drug-induced liver injury reported” throughout.

As for `N[C@@H](Cc1cc(I)c(Oc2ccc(O)c(I)c2)c(I)c1)C(=O)O` [LIOTHYRONINE], the results for the Hepatotoxicity entry with Hepatotoxicity [1], with Hepatotoxicity [2] and with Hepatotoxicity [3] were “drug-induced liver injury reported”, “no drug-induced liver injury reported” and “drug-induced liver injury reported”, respectively.

Take `NCCCC[C@H](N[C@@H](CCc1ccccc1)C(=O)O)C(=O)N1CCC[C@H]1C(=O)O` [LISINOPRIL ANHYDROUS]: the Hepatotoxicity entry is reported as “drug-induced liver injury reported” in the data set with Hepatotoxicity [1], “no drug-induced liver injury reported” in the data set on Hepatotoxicity [2] and “drug-induced liver injury reported” in the data set with Hepatotoxicity [3].

In the case of `CN(CCCN1c2ccccc2CCc2ccccc21)CC(=O)c1ccc(Cl)cc1` [LOFEPRAMINE], the Hepatotoxicity entry is reported as “no drug-induced liver injury reported” with Hepatotoxicity [1], “no drug-induced liver injury reported” in the data set on Hepatotoxicity [2] and “drug-induced liver injury reported” with Hepatotoxicity [3].

Turning to `O=NN(CCCl)C(=O)NC1CCCCC1` [LOMUSTINE], the Hepatotoxicity result in the data set on Hepatotoxicity [1] is “drug-induced liver injury reported”; in the data set on Hepatotoxicity [2], “no drug-induced liver injury reported”; with Hepatotoxicity [3], “drug-induced liver injury reported”.

Regarding `CN(C)C(=O)C(CCN1CCC(O)(c2ccc(Cl)cc2)CC1)(c1ccccc1)c1ccccc1` [LOPERAMIDE], the Hepatotoxicity entry with Hepatotoxicity [1] is given as “drug-induced liver injury reported”; with Hepatotoxicity [2], “no drug-induced liver injury reported”; in the data set on Hepatotoxicity [3] it was “no drug-induced liver injury reported”.

On to `Cc1cccc(C)c1OCC(=O)N[C@@H](Cc1ccccc1)[C@@H](O)C[C@H](Cc1ccccc1)NC(=O)[C@H](C(C)C)N1CCCNC1=O` [LOPINAVIR], for which the Hepatotoxicity entry in the data set on Hepatotoxicity [1] is “no drug-induced liver injury reported”; in the data set on Hepatotoxicity [2], “no drug-induced liver injury reported”; in the data set on Hepatotoxicity [3], “drug-induced liver injury reported”.

Turning to `CN1C(C(=O)Nc2ccccn2)=C(O)c2sc(Cl)cc2S1(=O)=O` [LORNOXICAM], the Hepatotoxicity entry in the data set with Hepatotoxicity [1] is given as “no drug-induced liver injury reported”; in the data set on Hepatotoxicity [2], “no drug-induced liver injury reported”; with Hepatotoxicity [3], “drug-induced liver injury reported”.

Regarding `CCCCc1nc(Cl)c(CO)n1Cc1ccc(-c2ccccc2-c2nn[nH]n2)cc1` [LOSARTAN], the figures for the Hepatotoxicity entry in the data set on Hepatotoxicity [1], in the data set on Hepatotoxicity [2] and in the data set with Hepatotoxicity [3] were “drug-induced liver injury reported”, “no drug-induced liver injury reported” and “drug-induced liver injury reported”, respectively.

Take `CCOC(=O)CC(SP(=S)(OC)OC)C(=O)OCC` (configuration not stated) [MALATHION]: the figures for the Hepatotoxicity entry in the data set with Hepatotoxicity [1], in the data set with Hepatotoxicity [2] and with Hepatotoxicity [3] were “drug-induced liver injury reported”, “no drug-induced liver injury reported” and “no drug-induced liver injury reported”, respectively.

As to `CC(C)OC(=O)C(C(=O)OC(C)C)=C1SC=CS1` [MALOTILATE], the Hepatotoxicity entry is listed as “drug-induced liver injury reported” with Hepatotoxicity [1], “no drug-induced liver injury reported” in the data set with Hepatotoxicity [2] and “drug-induced liver injury reported” in the data set on Hepatotoxicity [3].

In the case of `OC[C@@H](O)[C@@H](O)[C@H](O)[C@H](O)CO` [MANNITOL], the Hepatotoxicity result in the data set with Hepatotoxicity [1], in the data set with Hepatotoxicity [2] and in the data set on Hepatotoxicity [3] was “drug-induced liver injury reported” throughout.

In the case of `C#C[C@]1(O)CC[C@H]2[C@@H]3CCC4=CCCC[C@@H]4[C@H]3C(=C)C[C@@]21CC.C#C[C@]1(O)CC[C@H]2[C@@H]3CCc4cc(O)ccc4[C@H]3CC[C@@]21C` [MARVELON], the Hepatotoxicity entry with Hepatotoxicity [1] was “no drug-induced liver injury reported”; in the data set on Hepatotoxicity [2] it was “no drug-induced liver injury reported”; with Hepatotoxicity [3], “drug-induced liver injury reported”.

`OC1(c2ccc(Cl)cc2)c2ccccc2C2=NCCN21` (configuration not stated) [MAZINDOL]: the values for the Hepatotoxicity result in the data set on Hepatotoxicity [1], with Hepatotoxicity [2] and with Hepatotoxicity [3] were “drug-induced liver injury reported”, “no drug-induced liver injury reported” and “no drug-induced liver injury reported”, respectively.

For `COC(=O)Nc1nc2ccc(C(=O)c3ccccc3)cc2[nH]1` [MEBENDAZOLE], the Hepatotoxicity result in the data set with Hepatotoxicity [1] was “no drug-induced liver injury reported”; in the data set with Hepatotoxicity [2] it was “drug-induced liver injury reported”; with Hepatotoxicity [3], “drug-induced liver injury reported”.

On to `CCC(C)C(C)(COC(N)=O)COC(N)=O` (configuration not stated) [MEBUTAMATE], for which the Hepatotoxicity result in the data set on Hepatotoxicity [1] is listed as “drug-induced liver injury reported”; with Hepatotoxicity [2] it was “no drug-induced liver injury reported”; in the data set with Hepatotoxicity [3], “no drug-induced liver injury reported”.

Turning to `Cc1cccc(CN2CCN(C(c3ccccc3)c3ccc(Cl)cc3)CC2)c1` (configuration not stated) [MECLIZINE], the values for the Hepatotoxicity result in the data set on Hepatotoxicity [1], in the data set on Hepatotoxicity [2] and with Hepatotoxicity [3] were “drug-induced liver injury reported”, “no drug-induced liver injury reported” and “no drug-induced liver injury reported”, respectively.

As for `CN(C)CCOC(=O)COc1ccc(Cl)cc1` [MECLOFENOXATE], the values for the Hepatotoxicity result in the data set on Hepatotoxicity [1], with Hepatotoxicity [2] and in the data set with Hepatotoxicity [3] were “drug-induced liver injury reported”, “no drug-induced liver injury reported” and “no drug-induced liver injury reported”, respectively.

As for `Cc1cccc(C(C)c2cnc[nH]2)c1C` (configuration not stated) [MEDETOMIDINE], the Hepatotoxicity result in the data set with Hepatotoxicity [1] (Liver) is listed as “no drug-induced liver injury reported”; with Hepatotoxicity [2] (Liver), “drug-induced liver injury reported”; in the data set with Hepatotoxicity [3] (Liver), “drug-induced liver injury reported”.

Regarding `CC(=O)O[C@]1(C(C)=O)CC[C@H]2[C@@H]3C[C@H](C)C4=CC(=O)CC[C@]4(C)[C@H]3CC[C@@]21C` [MEDROXYPROGESTERONE ACETATE], the Hepatotoxicity entry with Hepatotoxicity [1] is reported as “drug-induced liver injury reported”; in the data set on Hepatotoxicity [2], “no drug-induced liver injury reported”; with Hepatotoxicity [3], “no drug-induced liver injury reported”.

With `Cc1cccc(Nc2ccccc2C(=O)O)c1C` [MEFENAMIC ACID], the values for the Hepatotoxicity entry with Hepatotoxicity [1] (Liver), in the data set on Hepatotoxicity [2] (Liver) and with Hepatotoxicity [3] (Liver) were “drug-induced liver injury reported”, “no drug-induced liver injury reported” and “drug-induced liver injury reported”, respectively.

For the molecule `CC(=O)O[C@]1(C(C)=O)CC[C@H]2[C@@H]3C=C(C)C4=CC(=O)CC[C@]4(C)[C@H]3CC[C@@]21C` [MEGESTROL ACETATE], the results for the Hepatotoxicity entry with Hepatotoxicity [1], with Hepatotoxicity [2] and in the data set on Hepatotoxicity [3] were “drug-induced liver injury reported”, “no drug-induced liver injury reported” and “drug-induced liver injury reported”, respectively.

Consider `CNC[C@H](O)[C@@H](O)[C@H](O)[C@H](O)CO` [MEGLUMINE], for which the Hepatotoxicity result with Hepatotoxicity [1] is recorded as “no drug-induced liver injury reported”; in the data set on Hepatotoxicity [2], “no drug-induced liver injury reported”; in the data set with Hepatotoxicity [3], “drug-induced liver injury reported”.
